For three compounds, Normal boiling temperature and refractive index results are on record in the NIST ThermoML archive (doi:10.1021/je7004402).

As a reminder, the refractive index is a measure of how strongly the sample bends light.

± gives the expanded uncertainty stated by the source.

Assay in one series: not given
Particulars: Liquid; Ebulliometric method (Recirculating still).
For `CCOC=O` [ethyl methanoate], the Normal boiling temperature came out at 54.17 ± 0.2 °C.
The same measure, in the same setting: the same measure for `CC(C)c1ccccc1` [isopropylbenzene]: 152.29 ± 0.2 °C; for `C=COC(C)=O` [vinyl acetate]: 72.80 ± 0.2 °C.

Another series can be described thus: refractive index (Na D-line) (dimensionless). Particulars: 298.15 K; 101.33 kPa; Liquid; Standard Abbe refractometry.
Consider `CCOC=O` [ethyl methanoate], for which the refractive index amounted to 1.35901 ± 0.00063.
Still for that read-out and setting: the same measure for `CC(C)c1ccccc1` [isopropylbenzene]: 1.48829 ± 0.00053.
The same measure, in the same setting: as for `C=COC(C)=O` [vinyl acetate], the figure is 1.39236 ± 0.00053.
